Laboratory results: PMC4057101 (Science (New York, N.Y.), 2013)

Key:
Assay type in all cases: biochemical
acetate kinase (AckA) = acetate kinase (AckA) (Escherichia coli, UniProt P0A6A3); details: ATP
PhaB = PhaB (Cupriavidus necator, UniProt P14697); test: coupled reduction with NphT7; details: substrate formed in situ by NphT7
[1] = target: acetyl-CoA carboxylase (ACCase), AccABCD (Escherichia coli, UniProt P0A9Q5+P0ABD5); test: one-pot carboxylation; details: formed in situ from fluoroacetate by AckA-Pta; 500 μM CoA
Chain of acetyl-CoA carboxylase (ACCase), AccABCD (P0A9Q5 whole entry): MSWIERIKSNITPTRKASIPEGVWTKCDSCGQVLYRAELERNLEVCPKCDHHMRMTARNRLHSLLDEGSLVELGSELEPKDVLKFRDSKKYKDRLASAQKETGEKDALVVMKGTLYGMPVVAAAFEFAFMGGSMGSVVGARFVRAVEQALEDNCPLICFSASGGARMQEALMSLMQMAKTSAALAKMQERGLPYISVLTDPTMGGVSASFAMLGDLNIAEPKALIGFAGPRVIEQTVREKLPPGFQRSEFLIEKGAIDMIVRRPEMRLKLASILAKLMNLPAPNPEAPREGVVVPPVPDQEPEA
Chain of acetyl-CoA carboxylase (ACCase), AccABCD (P0ABD5 2-319): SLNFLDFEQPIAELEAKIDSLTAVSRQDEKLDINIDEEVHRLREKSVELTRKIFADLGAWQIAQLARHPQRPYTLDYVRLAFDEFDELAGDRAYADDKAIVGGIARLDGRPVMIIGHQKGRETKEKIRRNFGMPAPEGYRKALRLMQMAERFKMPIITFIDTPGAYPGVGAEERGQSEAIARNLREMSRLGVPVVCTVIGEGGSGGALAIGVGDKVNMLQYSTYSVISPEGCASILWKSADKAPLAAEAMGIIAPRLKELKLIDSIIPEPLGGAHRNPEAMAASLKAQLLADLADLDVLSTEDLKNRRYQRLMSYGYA

NphT7 = target: T1, NphT7 (Streptomyces sp. CL190, UniProt D7URV0); test: steady-state kinetics, coupled assay with PhaB; details: acetyl-CoA starter
T1 sequence (D7URV0 1-329): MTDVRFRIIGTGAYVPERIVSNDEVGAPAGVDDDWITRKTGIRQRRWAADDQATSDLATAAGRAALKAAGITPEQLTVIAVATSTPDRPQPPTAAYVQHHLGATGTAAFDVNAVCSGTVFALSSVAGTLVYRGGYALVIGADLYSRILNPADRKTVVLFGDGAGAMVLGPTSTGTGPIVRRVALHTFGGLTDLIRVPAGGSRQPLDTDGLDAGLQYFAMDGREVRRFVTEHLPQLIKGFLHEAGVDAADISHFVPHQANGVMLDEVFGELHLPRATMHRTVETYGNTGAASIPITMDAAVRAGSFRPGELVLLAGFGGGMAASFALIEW

DEBSMod6+TE = DEBSMod6+TE (Saccharopolyspora erythraea, UniProt Q03133); test: LC-MS of triketide lactone formation; details: NDK-SNAC, MatB and ATP regeneration
Chain of DEBSMod6+TE (Q03133 1468-3172): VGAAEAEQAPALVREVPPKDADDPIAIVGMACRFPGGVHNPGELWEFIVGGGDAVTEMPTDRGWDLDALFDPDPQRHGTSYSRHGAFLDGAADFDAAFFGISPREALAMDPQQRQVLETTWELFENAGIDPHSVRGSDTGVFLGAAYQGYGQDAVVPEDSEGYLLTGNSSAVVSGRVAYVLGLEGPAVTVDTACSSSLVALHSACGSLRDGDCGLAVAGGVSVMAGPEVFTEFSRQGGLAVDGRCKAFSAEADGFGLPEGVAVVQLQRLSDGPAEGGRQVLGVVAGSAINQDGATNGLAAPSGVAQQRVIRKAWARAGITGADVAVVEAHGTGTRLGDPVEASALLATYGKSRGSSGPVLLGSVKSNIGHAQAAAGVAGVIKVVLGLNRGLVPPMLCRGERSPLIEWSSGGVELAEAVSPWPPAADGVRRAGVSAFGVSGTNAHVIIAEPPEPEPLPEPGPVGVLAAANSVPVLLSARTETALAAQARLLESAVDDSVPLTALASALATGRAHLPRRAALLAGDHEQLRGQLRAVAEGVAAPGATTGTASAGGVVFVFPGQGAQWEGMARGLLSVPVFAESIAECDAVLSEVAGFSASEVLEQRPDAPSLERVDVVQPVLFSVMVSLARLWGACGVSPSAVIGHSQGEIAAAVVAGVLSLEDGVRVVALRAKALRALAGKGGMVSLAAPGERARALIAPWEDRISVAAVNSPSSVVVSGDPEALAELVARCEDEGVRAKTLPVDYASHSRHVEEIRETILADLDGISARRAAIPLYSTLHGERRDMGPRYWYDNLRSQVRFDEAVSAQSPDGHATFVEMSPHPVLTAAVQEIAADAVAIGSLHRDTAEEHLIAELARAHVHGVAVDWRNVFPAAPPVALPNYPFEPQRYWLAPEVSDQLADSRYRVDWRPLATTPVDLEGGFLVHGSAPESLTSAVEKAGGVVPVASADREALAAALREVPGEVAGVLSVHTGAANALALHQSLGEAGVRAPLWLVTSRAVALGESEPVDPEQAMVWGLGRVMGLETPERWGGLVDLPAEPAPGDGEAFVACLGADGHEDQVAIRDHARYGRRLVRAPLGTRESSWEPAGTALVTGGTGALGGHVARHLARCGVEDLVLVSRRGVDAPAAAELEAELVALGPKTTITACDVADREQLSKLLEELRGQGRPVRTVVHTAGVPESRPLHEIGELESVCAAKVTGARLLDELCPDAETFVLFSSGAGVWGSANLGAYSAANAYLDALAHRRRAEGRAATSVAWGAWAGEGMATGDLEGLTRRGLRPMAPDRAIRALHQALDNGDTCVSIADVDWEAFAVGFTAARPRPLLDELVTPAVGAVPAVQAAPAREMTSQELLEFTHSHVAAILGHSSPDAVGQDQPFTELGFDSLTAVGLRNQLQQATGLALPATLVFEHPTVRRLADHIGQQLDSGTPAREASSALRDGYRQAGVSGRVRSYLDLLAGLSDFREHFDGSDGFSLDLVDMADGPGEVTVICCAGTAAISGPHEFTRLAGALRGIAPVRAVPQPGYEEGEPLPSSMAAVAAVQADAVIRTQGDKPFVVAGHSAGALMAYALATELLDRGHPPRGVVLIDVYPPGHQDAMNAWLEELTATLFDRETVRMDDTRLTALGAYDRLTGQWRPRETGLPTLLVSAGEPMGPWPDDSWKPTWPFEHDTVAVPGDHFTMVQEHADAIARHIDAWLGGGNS

Chain of acetate kinase (AckA) (P0A6A3 whole entry): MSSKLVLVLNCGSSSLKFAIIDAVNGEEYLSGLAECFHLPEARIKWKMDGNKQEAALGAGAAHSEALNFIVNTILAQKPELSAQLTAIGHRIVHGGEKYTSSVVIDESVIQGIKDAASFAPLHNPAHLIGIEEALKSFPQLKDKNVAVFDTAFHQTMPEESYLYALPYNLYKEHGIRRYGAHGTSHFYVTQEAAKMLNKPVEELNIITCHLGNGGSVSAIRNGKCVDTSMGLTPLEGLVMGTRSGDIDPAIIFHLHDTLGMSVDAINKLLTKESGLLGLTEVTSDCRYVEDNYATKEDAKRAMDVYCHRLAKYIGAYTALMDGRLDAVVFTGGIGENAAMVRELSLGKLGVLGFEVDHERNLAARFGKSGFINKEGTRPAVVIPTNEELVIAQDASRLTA
Chain of PhaB (P14697 whole entry): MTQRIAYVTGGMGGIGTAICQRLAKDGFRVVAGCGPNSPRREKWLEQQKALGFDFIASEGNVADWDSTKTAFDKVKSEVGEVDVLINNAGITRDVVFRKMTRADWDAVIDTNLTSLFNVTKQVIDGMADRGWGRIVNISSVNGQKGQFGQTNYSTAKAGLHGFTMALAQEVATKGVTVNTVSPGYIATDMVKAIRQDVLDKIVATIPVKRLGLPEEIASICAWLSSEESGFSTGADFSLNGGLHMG

CC(=O)O [acetate]
KM (acetate kinase (AckA)): rapidly produce both acetyl- and fluoroacetyl-CoA in nearly quantitative yield

CC(=O)C(F)C(=O)SCCNC(=O)CCNC(=O)[C@H](O)C(C)(C)COP(=O)(O)OP(=O)(O)OC[C@H]1O[C@@H](n2cnc3c(N)ncnc32)[C@H](O)[C@@H]1OP(=O)(O)O (some centres unmarked) [acetofluoroacetyl-CoA]
coupled reduction with NphT7; 1H and 19F NMR of product (PhaB): PhaB is capable of efficiently reducing the acetofluoroacetyl-CoA substrate

O=C(O)CF [fluoroacetate]
KM (acetate kinase (AckA)): Analysis of the kinetic parameters for these enzymes with respect to fluorinated substrates

CC(C)(COP(=O)(O)OP(=O)(O)OC[C@H]1O[C@@H](n2cnc3c(N)ncnc32)[C@H](O)[C@@H]1OP(=O)(O)O)[C@@H](O)C(=O)NCCC(=O)NCCSC(=O)CF [fluoroacetyl-CoA]
one-pot carboxylation [1]: carry out the carboxylation of fluoroacetate in a one-pot reaction to generate the fluoromalonyl-CoA

CC(C)(COP(=O)(O)OP(=O)(O)OC[C@H]1O[C@@H](n2cnc3c(N)ncnc32)[C@H](O)[C@@H]1OP(=O)(O)O)[C@@H](O)C(=O)NCCC(=O)NCCSC(=O)C(F)C(=O)O (some centres unmarked) [fluoromalonyl-CoA]
KM (NphT7): formation of acetofluoroacetyl-CoA using an acetyl-CoA starter and fluoromalonyl-CoA extender | LC-MS of triketide lactone formation (DEBSMod6+TE): DEBSMod6+TE is also able to accept the fluorinated monomer in chain extension catalysis

CC(C)(COP(=O)(O)OP(=O)(O)OC[C@H]1O[C@@H](n2cnc3c(N)ncnc32)[C@H](O)[C@@H]1OP(=O)(O)O)[C@@H](O)C(=O)NCCC(=O)NCCSC(=O)CC(=O)O [malonyl-CoA]
KM (NphT7): Steady-state kinetic parameters for NphT7-catalyzed C–C bond formation

CC(C(=O)O)C(=O)SCCNC(=O)CCNC(=O)[C@H](O)C(C)(C)COP(=O)(O)OP(=O)(O)OC[C@H]1O[C@@H](n2cnc3c(N)ncnc32)[C@H](O)[C@@H]1OP(=O)(O)O (some centres unmarked) [methylmalonyl-CoA]
LC-MS of triketide lactone formation (DEBSMod6+TE): single round of chain elongation with its native methylmalonyl-CoA extender unit
